Test results taken from US20110212185A1, “WATER THAT EXPRESSES PATHOGEN-RESISTANCE GENES (PR GENE CLUSTERS) TO ENCODE PLANT IMMUNOPROTEINS, A METHOD OF PREVENTING PLANT DISEASES USING THE WATER, AND A DEVICE FOR PRODUCING THE WATER” (priority 2008, published 2011).

Key:
[1] = system: plant body or plant cells; conditions: supplied directly to plant body or plant cells; 'or more'; cited from earlier work
[2] = CLA chemiluminescence measurement of superoxide anion radicals in water; assay type: physicochemical; conditions: KO2 marker in FIG. 4; extinguished within several milliseconds
Procedure: The measurement of the superoxide anion radicals in water is performed in the following manner. […] Further, timings for collecting samples are set to immediately before the starting of reaction, 15 minutes after the start of reaction, and 30 minutes after the starting of reaction. At respective timings, 500 μl of aqueous solution in the reservoir is sampled using a micropipette and is added to 500 μl of 25 mM phosphoric acid potassium buffer solution (pH7.0) to which CLA is preliminarily added (1:1 mixture, total: 1 ml) and CLA luminescence is measured for 5 minutes after dropping the solution. The intensity of luminescence is indicated by relative luminescence unit (hereinafter referred to as rlu). […] Further, KO2 solution obtained by dissolving KO2 (potassium superoxide) in an organic solvent is added to CLA solution thus preparing a calibration curve of superoxide anion by chemiluminescence dependent on CLA. Generally, a method which dissolves KO2 in crown-ether-based organic solution and uses the solution for the determination of superoxide is used. However, to allow the reaction with CLA in aqueous solution in a non-hydrophobic environment, dimethylsulfoxide (DMSO) is used as organic solvent. Using this method, CLA luminescence by adding KO2 solution is induced whereby the calibration curve of superoxide anion radicals is prepared.

[3] = system: carp; conditions: data sheet of Hokho lateral-row Oryzemate granular wettable powder; cited from earlier work

Row | Molecule | concentration necessary to actually confirm the expression of the genes [1] [mM] | also measured
1 | OO [hydrogen peroxide] | 2 to 10 | 
2 | Potassium superoxide [KO2] |  | time for which emission of light is observed after dropping into water [2]: < 2 s
3 | O=C(O)c1ccccc1O [salicylic acid] | 0.1 to 0.5 | 
4 | C=CCOC1=NS(=O)(=O)c2ccccc21 [probenazole] |  | LC50 value (48 hours) for carp [3]: 8 ppm
